experiment: physchem; settings: octan-1-ol/water, pH 7.4, LogD7.4

| SMILES | logD |
| --- | --- |
| Cc1ccc(Cl)c(Nc2cc(Nc3ccc(OCC(O)CN(C)C)cc3)ncn2)c1 (centres undefined) | 2.16 |
| CC(C)C(NC(=O)Cn1c(-c2ccc(F)cc2)ncc(NC(=O)OCc2ccncc2)c1=O)C(=O)C(F)(F)F (centres undefined) | 2.22 |
| COc1cc(OC)cc(-c2ccc(NC(=O)OCc3ccccc3)c(=O)n2CC(=O)NC(C(=O)C(F)(F)F)C(C)C)c1 (centres undefined) | 2.26 |
| Cc1cc(COC(=O)Nc2ccc(-c3ccccc3)n(CC(=O)NC(C(=O)C(F)(F)F)C(C)C)c2=O)cc(C)n1 (centres undefined) | 2.38 |
| CC(=O)Nc1cccc(S(=O)(=O)Nc2ccc(-c3ccccc3)n(CC(=O)NC(C(=O)C(F)(F)F)C(C)C)c2=O)c1 (centres undefined) | 2.43 |
| COc1ccc(CCN2CN=C(SCc3ccc(Cl)cc3)NC2)cc1OC | 2.41 |
| Cc1cc2n[nH]c(=O)n2c2cc(-c3ccncc3)ccc12 | 2.29 |
| Cc1ccc2[nH]c(C(=O)N3CCN(C)CC3)cc2c1 | 2.22 |
| NC(=O)c1cnc(N[C@H]2CCCNC2)c2cc(-c3ccc(F)c(F)c3)sc12 | 2.17 |
| CNC(=O)C1(N2CCCNC2=O)CCN(CC[C@H](CN(C)C(=O)c2c(OC)c(C#N)cc3ccccc23)c2ccc(Cl)c(Cl)c2)CC1 | 2.2 |
| CC1CCN(C(=O)c2scc3c2OCCO3)CC1 | 2.26 |
| Cc1nc2nc(NC(=O)c3ccc(F)cc3)nn2c(O)c1Cc1ccccc1 | 2.2 |
| O=C(COc1ccccc1O)NC1CCCC1 | 2.31 |
| Nc1nc(N)nc(-c2cccc(C(F)(F)F)c2)n1 | 2.4 |
| Fc1cc2[nH]cnc2cc1Cl | 2.35 |
| Cc1ccccc1C(=O)N1CCN(c2ccccn2)CC1 | 2.18 |
| COc1cc(-c2nnc(S)n2-c2cccc(C(F)(F)F)c2)cc(OC)c1OC | 2.27 |
| Cc1cc(Nc2ccccc2)n(CCC#N)n1 | 2.3 |
| c1cc2c(cc1-c1cnc3n1CCC3)OCCO2 | 2.33 |
| Cc1ccc(S(=O)(=O)N2CCN(C(=O)c3ccco3)CC2)cc1 | 2.17 |
| Cc1ccc2c(N)c(C#N)sc2n1 | 2.23 |
| COc1cc(CNc2nc3ccccc3[nH]2)cc(OC)c1OC | 2.36 |

| SMILES | logD |
| --- | --- |
| CC1(C)C(=O)Nc2ccccc21 | 2.3 |
| CCCc1c(OCc2ccc(C(=O)O)c(Br)c2)ccc(C(C)=O)c1O | 2.3 |
| Cn1cnc2cc(OC(=O)c3ccccc3)cnc21 | 2.4 |
| CC(=O)N1CCOc2nc(OCc3ccccc3)ccc21 | 2.4 |
| O=C1CCOc2nc(COc3ccccc3)ccc21 | 2.3 |
| CS(=O)(=O)N1CCOc2cc(COc3ccccc3)cnc21 | 2.4 |
| CC[C@H](NC(=O)c1c([S+](C)[O-])c(-c2ccccc2)nc2ccccc12)c1cccnc1 (some centres undefined) | 2.2 |
| COc1cc2nnc(C(N)=O)c(Nc3ccc(C)cc3F)c2cc1N1CCN(C)CC1 | 2.36 |
| COc1cc2nnc(C(N)=O)c(Nc3cccc(Cl)c3F)c2cc1N1CCN(C)CC1 | 2.35 |
| Cc1ccc(CO)cc1N(C)c1ccnc(Nc2cc(C(=O)N3CCOCC3)cc(N3CCOCC3)c2)n1 | 2.2 |
| COc1cc(F)ccc1-c1cncc(CNC2CCC2)n1 | 2.23 |
| COc1cc(F)ccc1-c1cncc(CNC2CCCC2)c1 | 2.29 |
| COc1cc(F)ccc1-c1cccc(CNC2CCCC2)c1 | 2.29 |
| O=c1[nH]c2c(O)ccc([C@@H](O)CNCCCSCCOCCc3ccccc3)c2s1 | 2.3 |
| O=c1[nH]c2c(O)ccc([C@@H](O)CNCCCOCCOCCc3cccc4ccccc34)c2s1 | 2.28 |
| COc1cc(N2CCN(C(C)=O)CC2)ccc1Nc1ncc(Cl)c(-c2cnc3cc(C#N)ccn23)n1 | 2.3 |
| CCC(c1nc2ccsc2c(=O)n1Cc1ccc(Cl)cc1)N(CCCN)C(=O)c1ccc(C)cc1 (centres undefined) | 2.32 |
| NC(=O)Nc1cc(-c2cccc(O)c2)sc1C(N)=O | 2.21 |
| NC(=O)c1ccc(=O)n(Cc2ccc(Cl)cc2Cl)c1 | 2.36 |
| COc1ccc(CN2C(=O)CCC2(C)C(=O)NC2CCCCC2)c(OC)c1 (centres undefined) | 2.38 |
| O=C1Nc2ccc(S(=O)(=O)N3CCC[C@H]3CNc3ccccc3)cc2C1=O | 2.4 |
| CSc1ccc(OCc2ccccc2)c(/C=C/c2ccc(C(=O)O)cn2)c1 | 2.45 |

| SMILES | logD |
| --- | --- |
| NC(=O)c1sc(-c2ccsc2)cc1N | 2.23 |
| O=c1[nH]c2c(O)ccc([C@@H](O)CNCCc3ccc(CNCCc4c(Cl)cccc4Cl)cc3)c2s1 | 2.3 |
| CC(Cc1cccc(CNCCc2c(Cl)cccc2Cl)c1)NC[C@H](O)c1ccc(O)c2[nH]c(=O)sc12 (some centres undefined) | 2.41 |
| Cc1ccccc1Cn1ccn2c(=O)cc(N3CCOCC3)nc12 | 2.3 |
| Nc1cc2n[nH]c(=O)n2c2cc(-c3ccc[nH]3)ccc12 | 2.3 |
| O=c1[nH]nc2cc(CO)c3ccc(-c4ccc[nH]4)cc3n12 | 2.19 |
| O=C(Nc1ccc(N2CCOCC2)cn1)c1nnc(Nc2ccccc2F)o1 | 2.4 |
| Cc1ccc(-c2cc(C(F)(F)F)n[nH]2)cc1NC(=O)c1ccc(OCc2ccccn2)cc1 | 2.44 |
| N#Cc1cnn2c(N)cc(-c3cccs3)nc12 | 2.3 |
| COc1cc2c(Nc3ncc(NC(=O)c4ccccc4)cn3)ncnc2cc1OCCCN1CCOCC1 | 2.32 |
| NC(=O)Nc1sc(-c2cc(F)cc(F)c2)cc1C(=O)N[C@H]1CCCNC1 | 2.18 |
| CCCSc1ncccc1C(=O)N[C@@H]1[C@@H]2CC3C[C@H]1C[C@@](O)(C3)C2 | 2.27 |
| CCCNc1nc(N2CCC[C@@H](CC(=O)O)C2)ccc1C(=O)NC1CCCCC1 | 2.33 |
| CCCN(C)c1nc(N2CCC[C@@H](CC(=O)O)C2)ccc1C(=O)NC1CCCCC1 | 2.28 |
| O=C(c1ccc(-c2nc(=O)o[nH]2)cc1)N1CCC(N2CCC(Oc3ccc(Cl)c(Cl)c3)CC2)CC1 | 2.24 |
| COCCNS(=O)(=O)c1ccc(-c2cnc(N)c(C(=O)Nc3cccnc3)n2)cc1 | 2.26 |
| Cc1cc(Cl)ccc1OC1CCN(C[C@H](O)CNC(=O)c2c[nH]c(=O)c3cc(S(C)(=O)=O)ccc23)CC1 | 2.42 |
| CS(=O)(=O)c1ccccc1C(=O)NC[C@@H](O)CN1CCC(Oc2ccc(Cl)c(Cl)c2)CC1 | 2.34 |
| CCCc1cc(OCc2ccccc2)cc(=O)n1Cc1ccc(-c2ccccc2-c2nn[nH]n2)cc1 | 2.4 |
| CN(C)c1ccnc2sc3c(=O)n(-c4ccccc4)cnc3c12 | 2.34 |
| NC1(C(=O)N[C@@H](CCN2CCCCC2)c2ccc(Cl)cc2)CCN(c2ncnc3[nH]ccc23)CC1 | 2.4 |
| NC(=O)C(NC(=O)C1(N)CCN(c2ncnc3[nH]ccc23)CC1)c1ccc(Cl)cc1 (centres undefined) | 2.2 |

| SMILES | logD |
| --- | --- |
| CN(C)C(=O)CC(NC(=O)C1(N)CCN(c2ncnc3[nH]ccc23)CC1)c1ccc(Cl)cc1 (centres undefined) | 2.4 |
| CC(=O)NCC(NC(=O)C1(N)CCN(c2ncnc3[nH]ccc23)CC1)c1ccc(Cl)cc1 (centres undefined) | 2.4 |
| NC1(C(=O)NC(CS(N)(=O)=O)c2ccc(Cl)cc2)CCN(c2ncnc3[nH]ccc23)CC1 (centres undefined) | 2.2 |
| CS(=O)(=O)NCCC(NC(=O)C1(N)CCN(c2ncnc3[nH]ccc23)CC1)c1ccc(Cl)cc1 (centres undefined) | 2.2 |
| NC1(C(=O)NC(CO)c2ccc(Cl)cc2)CCN(c2ncnc3[nH]ccc23)CC1 (centres undefined) | 2.4 |
| CC(NC(=O)C1(N)CCN(c2ncnc3[nH]ccc23)CC1)c1ccccc1 (centres undefined) | 2.17 |
| CC(NC(=O)C1(N)CCN(c2ncnc3[nH]ccc23)CC1)c1ccc(F)cc1 (centres undefined) | 2.4 |
| OCCN1CC=CC[C@H](c2ccc(Cl)c(Cl)c2)C1 | 2.37 |
| O=C(CN1C(=O)C(NC(=O)c2cc3cc(Cl)sc3[nH]2)Cc2ccccc21)NO (centres undefined) | 2.4 |
| Cc1cn([C@H]2CCCN(S(=O)(=O)c3ccc(O)c(Oc4cccc(C(F)(F)F)c4)c3)C2)c(=O)[nH]c1=O | 2.27 |
| COc1cc2ncnc(Nc3ccncc3)c2cc1OC | 2.22 |
| Cc1ccn2c(-c3ccnc(N)n3)c(C)nc2c1 | 2.39 |
| O=C(NCCN1CCCC1)c1ccc(Nc2ncc3cc(-c4ccncc4)ccc3n2)cc1 | 2.39 |
| Clc1ccc2[nH]ncc2c1 | 2.44 |
| Fc1ccc2cn[nH]c2c1 | 2.3 |
| Clc1cccc2cn[nH]c12 | 2.33 |
| COc1cc(OC2CCN(C)CC2)c2c(Nc3cccc4c3OCCO4)ncnc2c1 | 2.26 |
| Fc1ccc(-n2cc(C3CCNCC3)c3cc(Cl)ccc32)cc1 | 2.4 |
| CC(C)C(NC(=O)Cn1c(-c2ccccc2)ccc(NC(=O)OCc2ccncc2)c1=O)C(=O)C(F)(F)F (centres undefined) | 2.41 |
| O=C1c2ccc(O)cc2C(=O)N1c1ccccc1 | 2.3 |
| CC(C)C(NC(=O)Cn1c(-c2ccccc2)ccc(NC(=O)NCc2ccncc2)c1=O)C(=O)C(F)(F)F (centres undefined) | 2.16 |
| CC(C)C(NC(=O)Cn1c(-c2ccccc2)ccc(NS(=O)(=O)c2ccccc2)c1=O)C(=O)C(F)(F)F (centres undefined) | 2.26 |

| SMILES | logD |
| --- | --- |
| CCNc1ccc(-c2ccccc2)n(CC(=O)NC(C(=O)C(F)(F)F)C(C)C)c1=O (centres undefined) | 2.37 |
| O=C(c1ccc(CCC(COc2ccc(-c3cccc([N+](=O)[O-])c3)cc2)N2C(=O)CCCC2=O)cc1)N1CCCC1 (centres undefined) | 2.31 |
| NC(=O)c1cc(O)cc2nc(-c3ccc(O)cc3)oc12 | 2.3 |
| O=C(Nc1ccccn1)c1ccccc1 | 2.2 |
| Cc1ccc2c(-c3ccnc4cc(Cl)ccc34)c(C)n(CC(=O)O)c2c1 | 2.41 |
| CC(C)c1nnc2ccc(-c3ocnc3-c3cc(F)ccc3F)cn12 | 2.44 |
| COc1ccc2nc(N[C@H]3CCC[C@H](NCc4ccsc4)C3)cc(C)c2c1 | 2.41 |
| Nc1ccc2c(c1)C(=O)C(=O)c1ccccc1-2 | 2.23 |
| O=C1C(=O)c2cc([N+](=O)[O-])ccc2-c2ccccc21 | 2.42 |
| CC(C)[C@@H](CO)NS(=O)(=O)c1ccc(Cl)s1 | 2.3 |
| Cc1ncc(-c2nc(Nc3ccc(C(=O)N4CC[C@@H](N(C)C)C4)cc3)ncc2F)n1C(C)C | 2.36 |
| Cc1ncc(-c2nc(Nc3ccc(C(=O)NCCN(C)C)c(F)c3)ncc2F)n1C(C)C | 2.26 |
| Cc1ncc(-c2ccnc(Nc3ccc(C(N)=O)cc3)n2)n1C(C)C | 2.39 |
| O=C(c1cccc(Cc2n[nH]c(=O)c3ccccc23)c1)N1CCN(c2ccccn2)CC1 | 2.36 |
| CS(=O)(=O)Nc1cc(Nc2nccc(Nc3c(Cl)ccc4c3OCO4)n2)cc(C(N)=O)c1 | 2.28 |
| Nc1cc(-c2ccccc2)nc2ccccc12 | 2.2 |
| Cn1cc(-c2ccc(O)cc2)c(=O)c2c(O)cc(O)cc21 | 2.2 |
| CN1CCN(C(=O)c2cc(-c3ccccc3)sc2NC(N)=O)CC1 | 2.17 |
| Nc1ccc2c(c1)-c1ccccc1C(=O)C2=O | 2.39 |
| c1ccc(-c2cc(NCCCCCCCCNc3cc(-c4ccccc4)nc4ccccc34)c3ccccc3n2)cc1 | 2.27 |
| CC(C)(C(N)=O)C(=O)NCCCNc1nc(Nc2cccc(NC(=O)N3CCCC3)c2)ncc1Br | 2.32 |

Reference: ChEMBL document CHEMBL3301361, “Experimental in vitro DMPK and physicochemical data on a set of publicly disclosed compounds”
